Measured values taken from patent US20250382305A1 (PTC THERAPEUTICS, INC., priority 2022, published 2025).

How the values were obtained:
ATXN3 pre-mRNA = test: RT-qPCR Assay to Quantify Exon 4 Skipping in ATXN3 pre-mRNA in Cells; assay type: cell-based; settings: percent exon 4 skipping in ATXN3 pre-mRNA, RT-qPCR of cell lysates; average IC50
How it was run: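 Cells plated at 10,000/well onto a 7-point, 3.16-fold DMSO dilution series (duplicates), incubated 24 h at 37 °C, then lysed. Exon 4 skipping measured by one-step RT-qPCR (48 °C RT, 40 cycles); IC50 interpolated from dose-response fit of percent skipping.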

[1] = system: Total ATXN3 (tATXN3) protein; test: Endogenous Total ATXN3 (tATXN3) Protein Assay (MSD immunoassay of cell lysates); assay type: cell-based; settings: average IC50, total ATXN3 protein in cell lysate after 48 h with compound (Table 1)
How it was run: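 Cells in DMEM/10% FBS were plated at 10,000 per well onto 7-point, 3.16-fold compound dilutions in duplicate for 48 h at 37° C, then lysed. Total ATXN3 in lysates was measured by MSD sandwich immunoassay: mouse anti-ATXN3 capture, rabbit anti-ATXN3 detection, SULFO-TAG anti-rabbit. Average IC50 was reported in star bins.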

Row | Substance | IC50 (ATXN3 pre-mRNA) | IC50 [1]
1 | (1R,2R,3S)-2-amino-3-(3-bromo-5-chloro-7-((thiophen-2-ylmethyl)amino)thieno[3,2-b]pyridin-2-yl)cyclohexan-1-ol and (1S,2S,3R)-2-amino-3-(3-bromo-5-chloro-7-((thiophen-2-ylmethyl)amino)thieno[3,2-b]pyridin-2-yl)cyclohexan-1-ol [Compound 228] | ≤ 30 nM | ≤ 30 nM
2 | (1R,2S,3R)-2-amino-3-(5-chloro-3-methyl-7-((thiophen-2-ylmethyl)amino)thieno[3,2-b]pyridin-2-yl)cyclohexan-1-ol and (1S,2R,3S)-2-amino-3-(5-chloro-3-methyl-7-((thiophen-2-ylmethyl)amino)thieno[3,2-b]pyridin-2-yl)cyclohexan-1-ol [Compound 374] | 30 to 300 nM | 30 to 300 nM
3 | (1R,5R,6S)-5-amino-6-(3-bromo-5-chloro-7-((thiophen-2-ylmethyl)amino)thieno[3,2-b]pyridin-2-yl)cyclohex-2-en-1-ol and (1S,5S,6R)-5-amino-6-(3-bromo-5-chloro-7-((thiophen-2-ylmethyl)amino)thieno[3,2-b]pyridin-2-yl)cyclohex-2-en-1-ol [Compound 329] | 30 to 300 nM | 30 to 300 nM
4 | (1R,5S,6R)-6-amino-5-(3-bromo-5-chloro-7-((thiophen-2-ylmethyl)amino)thieno[3,2-b]pyridin-2-yl)cyclohex-2-en-1-ol and (1S,5R,6S)-6-amino-5-(3-bromo-5-chloro-7-((thiophen-2-ylmethyl)amino)thieno[3,2-b]pyridin-2-yl)cyclohex-2-en-1-ol [Compound 153] | ≤ 30 nM | ≤ 30 nM
5 | (2-((1S,2S)-2-aminocyclohexyl)-5-chloro-7-((thiophen-2-ylmethyl)amino)thieno[3,2-b]pyridin-3-yl)methanol and (2-((1R,2R)-2-aminocyclohexyl)-5-chloro-7-((thiophen-2-ylmethyl)amino)thieno[3,2-b]pyridin-3-yl)methanol [Compound 360] | 30 to 300 nM | 30 to 300 nM
6 | (2R,3S)-2-amino-3-(3-bromo-5-chloro-7-((thiophen-2-ylmethyl)amino)thieno[3,2-b]pyridin-2-yl)cyclohexan-1-one and (2S,3R)-2-amino-3-(3-bromo-5-chloro-7-((thiophen-2-ylmethyl)amino)thieno[3,2-b]pyridin-2-yl)cyclohexan-1-one [Compound 192] | ≤ 30 nM | ≤ 30 nM
